Like-named read-outs stand apart in the source and are kept apart here.
Tests used:
[1] = biological target: bovine serum albumin (BSA) (Bos taurus, UniProt P02769); test: Fluorescence quenching of BSA by ligand (binary and ternary systems; Stern Volmer, double log and van't Hoff analysis); type: binding
Text: The spectrofluorometer FP-8200 (JASCO, Hachioji, Tokyo, Japan) was used to measure the fluorescence spectra. […] The inner filter effects were corrected for the reabsorption of emitted light using the equation [35]: Fcor=Fobs×e^(Aex+Aem)/2
Fcor and Fobs are the corrected and observed fluorescence in the above equation, respectively, and Aex and Aem are excitation and emission wavelengths absorbance values, respectively.
The fluorescence spectra for the protein BSA for the binary and the ternary system were recorded at 280 nm (excitation wavelength) and an emission wavelength of 300–500 nm (Figure 1a–c). […] (1) kq=Ksv/τ0 where F0 is BSA’s fluorescence intensity, and F is BSA’s fluorescence intensity in the presence of quencher. Stern Volmer constant is given as Ksv, and (Q) is quencher concentration. The kq biomolecular quenching constant and τ0 the lifetime of the fluorophore in the absence of quencher and is valued at 10^−8 s for biopolymers.
The binding constants and binding stoichiometry are were determined using a double logarithmic regression plot derived from the equation: log(F0−F)/F=log Kb+n log[Q] .

BSA Site I / Site II [2] = biological target: T1, BSA Site I / Site II (Bos taurus, UniProt P02769); set-up: method as in PMID 28513070, PMID 34946608; details: cited from earlier work
T1 construct: purchased Sigma-Aldrich (St. Louis, MO, USA)
T1 sequence (P02769 25-607): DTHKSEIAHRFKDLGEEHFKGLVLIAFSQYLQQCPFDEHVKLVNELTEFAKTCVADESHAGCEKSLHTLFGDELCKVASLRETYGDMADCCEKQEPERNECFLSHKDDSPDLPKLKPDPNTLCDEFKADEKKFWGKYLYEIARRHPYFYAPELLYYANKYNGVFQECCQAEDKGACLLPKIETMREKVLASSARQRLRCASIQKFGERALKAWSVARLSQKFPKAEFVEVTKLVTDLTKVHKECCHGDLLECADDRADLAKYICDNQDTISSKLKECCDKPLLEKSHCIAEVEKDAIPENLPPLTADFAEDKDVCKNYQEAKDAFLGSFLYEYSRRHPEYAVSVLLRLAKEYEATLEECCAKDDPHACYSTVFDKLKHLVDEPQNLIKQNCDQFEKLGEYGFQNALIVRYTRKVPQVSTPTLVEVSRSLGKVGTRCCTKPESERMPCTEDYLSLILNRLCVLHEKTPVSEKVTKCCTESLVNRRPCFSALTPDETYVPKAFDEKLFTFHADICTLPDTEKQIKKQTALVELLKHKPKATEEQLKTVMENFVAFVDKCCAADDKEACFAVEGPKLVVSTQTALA

serum proteins [3] = details: humans; cited from earlier work
serum proteins [4] = details: rats; cited from earlier work
BSA Site I / Site II [5] = biological target: T1, BSA Site I / Site II; test: Site marker studies with phenylbutazone (Site I) and ibuprofen (Site II); type: binding, bovine
serum proteins [6] = details: mice; cited from earlier work

Sequence of bovine serum albumin (BSA) (P02769 25-607): as above

Row | SMILES | bimolecular quenching constant kq ([1]; binary system, 298 K, kq = Ksv/τ0, τ0 10^−8 s) | Stern Volmer constant Ksv ± SD ([1]; binary system, BSA 1.5 μM, 298 K) | further reduction of fluorescence intensity of the BSA-ERL system by presence of QUR ([1]; difference ternary vs binary system) | binding site on BSA (BSA Site I / Site II [2]) | binding to serum proteins (serum proteins [3]) | binding to serum proteins (serum proteins [4]) | influence of phenylbutazone on quenching behavior and binding constant of BSA-ERL (BSA Site I / Site II [5]; Site I marker phenylbutazone) | binding constants of BSA-ERL in the presence and absence of ibuprofen (BSA Site I / Site II [5]; Site II marker ibuprofen) | binding site on BSA (BSA Site I / Site II [5]; site markers phenylbutazone and ibuprofen) | binding to serum proteins (serum proteins [6])
1 | O=c1c(O)c(-c2ccc(O)c(O)c2)oc2cc(O)cc(O)c12 [QUR, Quercetin] | 46.07 × 10^12 M^−1S^−1 | 460,702 ± 1875 M^−1 | 26% | Site I |  |  |  |  |  | 
2 | C#Cc1cccc(Nc2ncnc3cc(OCCOC)c(OCCOC)cc23)c1 [ERL, Erlotinib] |  |  |  |  | 92% | 92% | strongly influenced | similar | Site I | 95%

Source: PMC8874853 (Molecules, 2022)
